Data reported in patent publication US4994472A, “1-(pyridinylamino)-2-pyrrolidinones as pain relievers” (Hoechst-Roussel Pharmaceuticals Incorporated, priority 1989, dated 1991).

Assays:
[1] = test system: phenyl-para-quinone induced writhing; assay: phenyl-para-quinone writhing assay in mice (analgesia); assay type: in vivo; conditions: 20 mg/kg s.c., expressed as % decrease in writhing
Text: Exptl. […] Presented in Table I is the analgesic effect of one of the compounds of the invention expressed as the % decrease in writhing at a given dose.

[2] = test system: Scopolamine Induced Memory Deficit; assay: Dark Avoidance Assay (reversal of scopolamine induced memory deficit); assay type: in vivo; conditions: mice, retest after 24 hours
Experimental: In this assay, mice are tested for their ability to remember an unpleasant stimulus for a period of 24 hours. A mouse is placed in a chamber that contains a dark compartment; a strong incandescent light drives it to the dark compartment, where an electric shock is administered through metal plates on the floor. The animal is removed from the testing apparatus and tested again, 24 hours later, for the ability to remember the electric shock. If scopolamine, an anticholinergic that is known to cause memory impairment, is administered before an animal's initial exposure to the test chambers, the animal re-enters the dark compartment shortly after being placed in the test chamber 24 hours later. The effect of scopolamine is blocked by an active test compound, resulting in a greater interval before re-entry into the dark compartment. The results for an active compound are expressed as the percent of a group of animals in which the effect of scopolamine is blocked, as manifested by an increased interval between being placed in the test chamber and re-entering the dark compartment. The activity in the assay of some of the compounds of the invention are given below in Table 2.

## O=C1CCCN1Nc1ccncc1 [1-(4-pyridinylamino)-2-pyrrolidinone, 1-(4-Pyridinylamino)-2-pyrrolidinone]
[1]
  % Inhibition of Writhing: -56%

## CCCN(c1ccncc1)N1CCCC1=O.O=C(O)C(=O)O [1-(Propyl-4-pyridinylamino)-2-pyrrolidinone oxalate]
[2]; .3 mg/kg s.c.
  % of Animals With Scopolamine Induced Memory Deficit Reversal: 33%

## Nc1c2c(nc3ccccc13)CCCC2 [Tacrine, reference compound]
[2]; .63 (mg/kg of body wt) s.c.
  % of Animals With Scopolamine Induced Memory Deficit Reversal: 13%
